Measurements published in US4428963A, “Novel thiophene derivatives” (Hoffmann-La Roche Inc., priority 1983, dated 1984).

Tests used:
[1] = system: Hepatic Fatty Acid Synthesis; test: Hepatic fatty acid synthesis after oral administration at increasing concentrations (Table VI); type: in vivo, rat; details: oral gavage, 0.4 to 1.2 mmoles/kg over 10 days
Description: (§1) Rats are prepared by fasting 48 hours and refeeding a 1% corn oil 70% glucose diet for several days (5-15). On the experimental day, rats are dosed 30 or 60 minutes before the 3 hour meal by oral intubation, or 60 minutes after the end of the 3 hour meal by intraperitoneal injection. (The dose concentrated is a mmoles/kg/5-10 ml H2 O or 1% gum arabic depending on the solubility of the compound.) Rats are sacrificed by decapitation after a 30 minute pulse consisting of: 1mCi^3 H2 O,5 μCi[U-^14 C]alanine, 12.3 mg. alanine, and 30.6 mg α-ketoglutaric acid in […], given at the end of the 3 hour meal by i.v. injection into the tail vein. Blood was collected, allowed to clot and the serum analyzed for triglyceride and cholesterol levels. The livers are quickly excised, saponified, and acidified (only for determining the rate of lipogenesis) and extracted with hexane. At this stage the lipids are either counted (to determine the rate of lipogenesis) or precipitated with digitonin, washed, and counted (to determine the rate of cholesterogenesis). The conversion of ^3 H2 O and [^14 C]alanine into fatty acids or sterols is determined in a PDS/3, Mark II liquid scintillation counting system. Data are expressed as moles ^3 H2 O nmoles converted into fatty acids and cholesterol per g liver per 30 minutes.
(§2) ^a Charles River female rats were fasted 48 hr, then mealfed (8 to 11
(§3) a.m.) a high carbohydrate diet for 14 days. Rats weighing 180 to 210 g (1
(§4) in each group) were dosed by gastric gavage, with either 1% gum arabic or
(§5) Compound A in 1% gum arabic. The initial dose was 0.4 mmoles (89 mg) per
(§6) kg body weight and was increased by 0.2 mmoles (44 mg) per kg body weight
(§7) every other day. The experimental period consisted of 10 days, and the
(§8) doses given were 0.4, 0.6, 0.8, 1.0 and 1.2 mmoles per kg. All rats were
(§9) fed 1/2 hr after the oral dose. On the 10th day, following the 3 hr meal,
(§10) each rat received an intravenous injection (consisting of 5 μCi
(§11) [U^14 C]alanine, 1 mCi ^3 H2 O, 12.3 mg alanine and 30.6 mg
(§12) ketoglutaric acid) and was killed 30 min later. Livers were quickly
(§13) excised, saponified, and extracted for fatty acids or cholesterol. Data
(§14) are expressed as μmoles ^3 H2 O or nmoles [^14 C]alanine
(§15) converted into fatty acids or cholesterol per gram liver per 30 min.
(§16) Each value is the mean ± SE.

[2] = system: Hepatic Cholesterol Synthesis; test: Hepatic cholesterol synthesis after oral administration at increasing concentrations (Table VI); type: in vivo, rat; details: oral gavage, 0.4 to 1.2 mmoles/kg over 10 days
Description: as §1, §2, §3, §4, §5, §6, §7, §8, §9, §10, §11, §12, §13, §14, §15, §16

[3] = Body weight and food intake in ad libitum high fat fed rats, 63 day study (Table VIII); type: in vivo, rat
Description: (§17) As previously mentioned, the compounds disclosed and claimed herein are also useful as antiobesity agents. […] Groups of 10 rats were fed ad libitum a 10% corn oil, 60% glucose diet in accordance with the methodology described in Sullivan et al., Am. J. Clin. Nutr. 30:767-776 (1977). The effect of 4-amino-5-ethyl-3-thiophene carboxylic acid methyl ester hydrochloride on body weight, total body fat and protein was determined. The results are tabulated in Example 35 (Table VIII and Table IX) of the specification.
(§18) The antiobesity activity of 4-amino-5-ethyl-3-thiophene carboxylic acid methyl ester hydrochloride (Compound A) was evaluated in a long-term chronic experiment in which body weight gain and food consumption were monitored at least biweekly. The study was conducted on Charles River rats receiving 10% corn oil: 60% glucose (high fat) diets. For the first 32 days of this study a dose of approximately 71 mg./kg. body weight/day was given. From day 33 until the end of the study the average daily dose was increased to 130 mg./kg. body weight/day. The study included a group of rats pair-fed to the Compound A treated rats, i.e., the pair-fed animals received the same amount of food as their Compound A paired rat consumed on the previous day. Pair feeding was terminated several days after food intake in the Compound A treated groups returned to control levels. Pair-feeding to the Compound A treated group was terminated on day 22. Upon termination of the study, carcass lipid and protein levels, serum lipids and hepatic rates of fatty acid synthesis in vivo were determined. A summary of the initial and final body weights, cumulative weight gained and food consumed and average daily food intake is presented in Table VIII.
(§19) ^a Female Charles River rats (10 rats per group) were fed ad libitum
(§20) the 10% corn oil:60% glucose diet. On day 1 of the experiment rats were
(§21) divided into three groups: (1) control, (2) Compound A as a dietary
admixture (71 mg/kg body weight/day, and (3) pairfed to the Compound A
treated group. Pairfeeding was terminated on day 23. On day 33 the
concentraton of Compound A was increased to 130 mg/kg/day.

[4] = Total body fat and protein in ad libitum high fat fed rats, 63 day study (Table IX); type: in vivo, rat; details: dietary admixture 71 then (day 33) 130 mg/kg/day, 63 days
Description: as §17, §18, §19, §20, §21
admixture (71 mg/kg body weight/day), and (3) pairfed to the Compound A
treated group. Pairfeeding was terminated on day 22. On day 33 the
concentration of Compound A was increased to 130 mg/kg/day.

[5] = Serum triglycerides, cholesterol, insulin and glucose after oral administration at increasing concentrations (Table VII); type: in vivo, rat; details: oral gavage, 0.4 to 1.2 mmoles/kg over 10 days
Description: as §1, §2, §3, §4, §5, §6, §7, §8
fed 1/2 hr after the oral dose. On the 10th day, following the 3 hr meal
as §10, §11
ketoglutaric acid) and was killed 30 min later. Blood was collected,
allowed to clot and serum analyzed.
Each value is the mean ±SE

[6] = system: Cholesterol Synthesis (liver); test: In vivo cholesterogenesis in rat liver after intraperitoneal administration (Table II); details: i.p. 0.1 mmoles/kg
Description: as §1, with “The livers are quickly excised, saponified, and acidified (only for determining the rate of lipogenesis) and extracted with hexane.” left out, “minutes. […]” for “minutes.”
(§22) sacrificed and rates of synthesis determined.
(§23) ^b Data are expressed as μmoles ^3 H2 O and moles[ ^1 […]

[7] = system: Fatty Acid Synthesis (liver); test: In vivo lipogenesis in rat liver after intraperitoneal administration (Table II); details: i.p. 0.1 mmoles/kg; control 614 ± 66
Description: as §1, with “The livers are quickly excised, saponified, and acidified (only for determining the rate of lipogenesis) and extracted with hexane.” left out, “minutes. […]” for “minutes.”
as §22, §23

[8] = system: Fatty Acid Synthesis (liver); test: In vivo fatty acid synthesis in rat liver after oral administration (Table IV); details: oral 1.2 mmoles/kg
Description: as §1
(§24) ^a Charles River CD rats (6 rats per group at 160-180 g) were fasted
(§25) 48 hours, then mealfed a high carbohydrate diet for 18 days. On the
(§26) experimental day, rats were given an oral dose (1% gum arabic or
(§27) 3amino-4-carbomethoxy-2-n-propylthiophene hydrochloride in 1% gum arabic
(§28) at the above concentrations) 30 minutes before the beginning of the meal.
(§29) At the end of the 3 hour meal, the rats were given an i.v. pulse,
sacrificed 30 minutes later and rates of synthesis were determined.
(§30) ^b Data are expressed as μmoles ^3 H2 O and nmoles
[^14 C]alanine converted into fatty acids per g liver per 30 minutes.

[9] = Serum lipids after intraperitoneal administration (Table III); type: in vivo, rat; details: i.p. 0.1 mmoles/kg
Description: as §1, with “minutes. […]” for “minutes.”
as §22

[10] = system: Cholesterol Synthesis (liver); test: In vivo cholesterol synthesis in rat liver after oral administration (Table V); details: for Cholesterol Synthesis, 3H2O converted: control 1.35 ± 0.04; for Cholesterol Synthesis, [14C]alanine converted: control 33.0 ± 3.1
Description: as §1, §24, §25, §26, §27, §28, §29
sacrificed 30 minutes later, and rates of synthesis were determined.
as §30
[^14 C]alanine converted into cholesterol per g liver per 30 minutes.

[11] = oral 0.4 nmoles/kg (so in the source)

CCc1scc(C(=O)OC)c1N.Cl [Compound A, 4-amino-5-ethyl-3-thiophenecarboxylic acid methyl ester hydrochloride]
Fatty Acid Synthesis, 3H2O (value in parentheses, relative to control) [1]: 49%
Fatty Acid Synthesis, [14C]alanine (value in parentheses, relative to control) [1]: 42%
Fatty Acid Synthesis, 3H2O ([1]; mean ± SE, control 36.7 ± 2.7): 18.0 ± 2.3 μmoles/g/30 min
Fatty Acid Synthesis, [14C]alanine ([1]; mean ± SE, control 685 ± 59): 290 ± 49 nmoles/g/30 min
Cholesterol Synthesis, 3H2O (value in parentheses, relative to control) [2]: 120%
Cholesterol Synthesis, [14C]alanine (value in parentheses, relative to control) [2]: 114%
Cholesterol Synthesis, 3H2O ([2]; mean ± SE, control 0.50 ± 0.06): 0.60 ± 0.06 μmoles/g/30
Cholesterol Synthesis, [14C]alanine ([2]; mean ± SE, control 13.9 ± 1.5): 15.8 ± 1.6 nmol/g/30 min
IBW (initial body weight) ([3]; baseline of Compound A group, control 215 ± 3): 214 ± 3 g
FI (food intake) ([3]; dietary admixture 71 then (day 33) 130 mg/kg/day, 63 days, control 17.7 ± 0.7, pair-fed 16.0 ± 0.4): 16.3 ± 0.4 g/day
CBWG (cumulative body weight gain) ([3]; dietary admixture 71 then (day 33) 130 mg/kg/day, 63 days, control 68 ± 6, pair-fed 66 ± 6): 41 ± 4 g
FBW (final body weight) ([3]; dietary admixture 71 then (day 33) 130 mg/kg/day, 63 days, control 282 ± 8, pair-fed 281 ± 6): 256 ± 4 g
CFC (cumulative food consumption) ([3]; dietary admixture 71 then (day 33) 130 mg/kg/day, 63 days, control 1115.1 ± 44.1, pair-fed 1008.0 ± 25.2): 1026.9 ± 25.2 g
Protein, % of body weight ([4]; control 19.1 ± 1.6): 20.7 ± 1.4 % of body weight
Lipid, % of body weight ([4]; control 23.5 ± 2.2): 16.5 ± 1.7 % of body weight
Protein, total ([4]; control 54.1 ± 4.8): 52.7 ± 0.6 g
Lipid, total ([4]; control 66.8 ± 7.1): 42.1 ± 4.5 g
Cholesterol (value in parentheses, relative to control) [5]: 81%
Glucose (value in parentheses, relative to control) [5]: 97%
Insulin (value in parentheses, relative to control) [5]: 49%
Triglycerides (value in parentheses, relative to control) [5]: 62%
Insulin (serum) ([5]; mean ± SE, control 3.85 ± 0.74): 1.91 ± 0.24 ng/mL
Triglycerides (serum) ([5]; mean ± SE, control 51 ± 3): 31 ± 3 mg %
Cholesterol (serum) ([5]; mean ± SE, control 97 ± 5): 79 ± 6 mg %
Glucose (serum) ([5]; mean ± SE, control 165 ± 7): 160 ± 5 mg %

CCCc1scc(C(=O)OC)c1N.Cl [3-amino-4-carbomethoxy-2-n-propylthiophene hydrochloride]
Cholesterol Synthesis, 3H2O converted ([6]; control 1.36 ± 0.07): 0.85 ± 0.06 μmoles/g/30 min.
Cholesterol Synthesis, [14C]alanine converted ([6]; control 35.7 ± 3.2): 17.6 ± 1.9 nmoles/g/30 min
Fatty Acid Synthesis, [14C]alanine converted [7]: 251 ± 36 nmoles/g/30 min.
Fatty Acid Synthesis, 3H2O, % of Control [8]: 36 % of Control
Fatty Acid Synthesis, [14C]alanine, % of Control [8]: 34 % of Control
Fatty Acid Synthesis, 3H2O converted ([8]; control 19.6 ± 2.4): 7.1 ± 1.7 μmoles/g/30 min.
Fatty Acid Synthesis, [14C]alanine converted ([8]; control 473 ± 76): 162 ± 60 nmoles/g/30 min.
Triglycerides (serum) ([9]; control 67 ± 4): 51 ± 3 mg %
Cholesterol (serum) ([9]; control 116 ± 7): 105 ± 11 mg %
Cholesterol Synthesis, 3H2O, % of Control [10, 11]: 71 % of Control
Cholesterol Synthesis, [14C]alanine, % of Control [10, 11]: 53 % of Control
Cholesterol Synthesis, 3H2O converted [10, 11]: 0.96 ± 0.05 μmoles/g/30 min.
Cholesterol Synthesis, [14C]alanine converted [10, 11]: 17.4 ± 0.9 nmoles/g/30 min.
Cholesterol Synthesis, 3H2O, % of Control ([10]; oral 1.2 mmoles/kg): 65 % of Control
Cholesterol Synthesis, [14C]alanine, % of Control ([10]; oral 1.2 mmoles/kg): 46 % of Control
Cholesterol Synthesis, 3H2O converted ([10]; oral 1.2 mmoles/kg): 0.88 ± 0.16 μmoles/g/30 min.
Cholesterol Synthesis, [14C]alanine converted ([10]; oral 1.2 mmoles/kg): 15.2 ± 3.2 nmoles/g/30 min.
